Assay results published in patent publication US20060247862A1, “Determining cell cycle phase data” (priority 2003, published 2006).

System: U2OS cells
Assay: Effect of cell cycle blocking agents on GFP fluorescence from cell cycle phase marker using transiently transfected cells
Type: cell-based
Conditions: U2OS cells transiently transfected with cyclin B1 promoter/D-box/CRS-GFP construct; 24 hours exposure; compared to control cells (culture media alone); confocal imaging
Experimental: U2OS cells (ATCC HTB-96) were cultured in wells of a 96 well microtitre plate. Cells were transfected with a cell cycle reporter construct prepared according to Example 1, comprising a cyclin B1 promoter operably linked to sequences encoding the cyclin B1 D-box, the cyclin B1 CRS, and GFP in a pCORON4004 vector (Amersham Biosciences) using Fugene 6 (Roche) as the transfection agent.
Following 24 hours of culture, cells were exposed to the specific cell cycle blockers mimosine (blocks at G1/S phase boundary) or demecolcine (blocks in M phase). Control cells were exposed to culture media alone.
Cells were incubated for a further 24 hours and then analysed for nuclear GFP expression using a confocal scanning imager with automated image analysis (IN Cell Analysis System, Amersham Biosciences).

Structure (SMILES) | GFP fluorescence (nuclear GFP expression) from cell cycle phase marker
CN[C@H]1CCc2cc(OC)c(OC)c(OC)c2-c2ccc(OC)c(=O)cc21 [demecolcine] | increased fluorescence compared to control cells
NC(Cn1ccc(=O)c(O)c1)C(=O)O (centres unmarked) [mimosine] | decreased fluorescence compared to control cells
